# Measured values reported in the supplement of paper PMC13380429.
# ± gives the standard deviation of the averaged measurements.
# Experiments:
# Details in all cases: 72 h
# HepG2 [1] = experiment: drug sensitivity score (DSS) for viability; higher = more toxic; extreme values may be limits of the assay
# Caco-2 [2] = experiment: as above
# U2OS [3] = experiment: as above
# Vero E6 [4] = experiment: as above
# HepG2 [5] = experiment: cell viability relative to DMSO; higher = less toxic
# Caco-2 [6] = experiment: as above
# U2OS [7] = experiment: as above
# Vero E6 [8] = experiment: as above
# HepG2 [9] = experiment: relative viability EC50 (midpoint between 100% and the lowest measured viability); higher = less toxic
# Caco-2 [10] = experiment: as above
# U2OS [11] = experiment: as above
# Vero E6 [12] = experiment: as above
# Calu-3 [13] = experiment: drug sensitivity score (DSS) for viability; higher = more toxic; extreme values may be limits of the assay
# Calu-3 [14] = experiment: cell viability relative to DMSO; higher = less toxic
# Calu-3 [15] = experiment: relative viability EC50 (midpoint between 100% and the lowest measured viability); higher = less toxic
Compound,drug sensitivity score (HepG2 [1]),drug sensitivity score (Caco-2 [2]),drug sensitivity score (U2OS [3]),drug sensitivity score (Vero E6 [4]),cell viability (HepG2 [5]; 1 nM) [%],cell viability (HepG2 [5]; 10 nM) [%],cell viability (HepG2 [5]; 100 nM) [%],cell viability (HepG2 [5]; 1000 nM) [%],cell viability (HepG2 [5]; 10000 nM) [%],cell viability (Caco-2 [6]; 1 nM) [%],cell viability (Caco-2 [6]; 10 nM) [%],cell viability (Caco-2 [6]; 100 nM) [%],cell viability (Caco-2 [6]; 1000 nM) [%],cell viability (Caco-2 [6]; 10000 nM) [%],cell viability (U2OS [7]; 1 nM) [%],cell viability (U2OS [7]; 10 nM) [%],cell viability (U2OS [7]; 100 nM) [%],cell viability (U2OS [7]; 1000 nM) [%],cell viability (U2OS [7]; 10000 nM) [%],cell viability (Vero E6 [8]; 1 nM) [%],cell viability (Vero E6 [8]; 10 nM) [%],cell viability (Vero E6 [8]; 100 nM) [%],cell viability (Vero E6 [8]; 1000 nM) [%],cell viability (Vero E6 [8]; 10000 nM) [%],relative viability EC50 (HepG2 [9]) [µM],relative viability EC50 (Caco-2 [10]) [µM],relative viability EC50 (U2OS [11]) [µM],relative viability EC50 (Vero E6 [12]) [µM],drug sensitivity score (Calu-3 [13]),cell viability (Calu-3 [14]; 1 nM) [%],cell viability (Calu-3 [14]; 10 nM) [%],cell viability (Calu-3 [14]; 100 nM) [%],cell viability (Calu-3 [14]; 1000 nM) [%],cell viability (Calu-3 [14]; 10000 nM) [%],relative viability EC50 (Calu-3 [15]) [µM]
N#Cc1cccc(-c2nc(-c3cccnc3)no2)c1 [NS-9283],0,0,0,0,105,97.2,104,101,98.8,91.1,94.4,90.9,95,93.1,100,101,97.1,98.6,99.7,99.1,98.7,101,102,99.7,> 10,> 10,> 10,> 10,,,,,,,
O=C(O)[C@H]1O[C@@H](Oc2cc3oc(-c4ccccc4)cc(=O)c3c(O)c2O)[C@H](O)[C@@H](O)[C@@H]1O [baicalin],,0,0,0,,,,,,109,99,95.7,93.3,97.5,105,93.2,104,101,91.8,99.7,103,102,103,102,,> 10,> 10,> 10,0,103,98.5,90.4,104,109,> 10
CN1CCc2cc3c(cc2[C@H]1[C@@H]1OC(=O)c2c1ccc1c2OCO1)OCO3 [bicuculline-(+)],0,0,0,0,91.1,98.3,88.8,97.8,106,93.2,86.7,96.4,96.5,100,97.4,96.1,97.6,99.5,99.8,95.2,98.6,94.7,102,104,> 10,> 10,> 10,> 10,,,,,,,
C[C@H](CCC(=O)O)[C@H]1CC[C@H]2[C@@H]3C(=O)C[C@@H]4CC(=O)CC[C@]4(C)[C@H]3CC(=O)[C@]12C [dehydrocholate-acid],0,0,0,0,95.8 ± 7.3,102 ± 5.5,95.05 ± 0.21,103 ± 1.1,102 ± 7.3,95.5 ± 1.1,84 ± 19,96.2 ± 5.6,94.2 ± 6.7,93.2 ± 16,101 ± 2.8,96.9 ± 2.8,98.3 ± 1.3,96 ± 2.3,97.6 ± 0.14,97.8 ± 0.57,102 ± 5.9,91.2 ± 6.6,94 ± 8,103 ± 7.6,> 10,> 10,> 10,> 10,,,,,,,
N=C(N)c1ccc(/N=N/Nc2ccc(C(=N)N)cc2)cc1 [diminazene-aceturate],4.2,1.9,0,0,112,113,90.2,86.5,50.5,104,102,112,91.1,76.6,99,98.3,103,98.2,107,99.7,109,107,102,91.3,,> 10,> 10,> 10,0,93.7,101,99.9,99.2,94.8,> 10
O=C(O)[C@H](O)[C@@H](O)[C@H](O[C@@H]1O[C@H](CO)[C@H](O)[C@H](O)[C@H]1O)[C@H](O)CO [maltobionic-acid],,0,0,0,,,,,,89.3,101,85.6,97.9,115,93.6,103,97.8,102,101,94.3,89.8,94.4,88,101,,> 10,> 10,> 10,0,103,106,101,100,99.7,> 10
COC(=O)Nc1nc2cc(C(=O)c3cccs3)ccc2[nH]1 [nocodazole],13.3,11.8,13.6,17.9,114,103,85.6,40,40.2,102,105,73.6,54.1,40.6,105,110,70.4,46,24.3,105,108,64.8,30.7,26.8,0.159,0.174,0.252,0.103,10.6,103,105,73.8,65.4,54.9,
CCN1CCN(C(=O)N[C@@H](C(=O)N[C@@H]2C(=O)N3[C@@H]2SC(C)(C)[C@@H]3C(=O)O)c2ccccc2)C(=O)C1=O [piperacillin],0,0,0,0,114,113,104,103,95.5,93.8,91.1,97.8,103,106,97,94,93.9,102,103,97.2,99.1,97.7,96.5,110,> 10,> 10,> 10,> 10,,,,,,,
Cc1ncc(CO)c(/C=N/NC(=O)c2ccncc2)c1O [pyridoxal-isonicotinoyl-hydrazone],,0,0,0,,,,,,102,108,93.3,100,100,95.8,97.4,95.8,93,102,100,94.2,92.5,97.4,109,,> 10,> 10,> 10,0,90.1,99.4,102,103,92,> 10
CCn1cc(C(=O)O)c(=O)c2ccc(-c3ccncc3)cc21 [rosoxacin],0,0,0,0,94.7,97.8,97.5,94.6,111,102,98,96.3,98.6,95.7,101,96.6,99.2,97.8,99.9,99.8,102,89.1,103,103,> 10,> 10,> 10,> 10,,,,,,,
CCCCCCCCCCCCCCC[C@@H](O)[C@@H](N)CO [safingol],1.9,6,0,0,106,103,80,95.5,73.7,94.1,85.3,91,96.1,1.7,94,97.9,102,97.9,103,106,106,96.1,104,106,,2.87,> 10,> 10,0,85.3,96.8,95.2,108,96.4,> 10
O=C(O)c1cc(O)c2c(c1)[C@H]([C@H]1c3cc(C(=O)O)cc(O)c3C(=O)c3c(O[C@@H]4O[C@H](CO)[C@@H](O)[C@H](O)[C@H]4O)cccc31)c1cccc(O[C@@H]3O[C@H](CO)[C@@H](O)[C@H](O)[C@H]3O)c1C2=O [sennoside-A],0,0,0,0,90.2,91.7,89.6,103,92.4,79.8,100,88,82.1,123,94,100,96.5,96.6,88.3,112,93.1,95.9,98.8,101,> 10,> 10,> 10,> 10,2.3,95.3,96.8,90.1,91,67.3,
CC[C@H](NC(=O)c1c(O)c(-c2ccccc2)nc2ccccc12)c1ccccc1 [talnetant],1,0,0,0,102,99,94.6,100,74.2,97.9,98.9,101,98.1,90,100,92.7,104,95,101,109,102,98.4,102,102,,> 10,> 10,> 10,0,104,97.3,104,96.5,106,> 10
O=c1n(CC2CO2)c(=O)n(CC2CO2)c(=O)n1CC1CO1 (stereo unspecified) [teroxirone],4,0.4,0,0.4,99.9,100,92.8,91.1,51.8,102,101,95.6,93.2,84.3,103,95.7,104,102,96.2,100,105,98.5,102,80.8,,> 10,> 10,> 10,0,94.4,91.2,99.3,84.1,90.9,> 10
S=C(NC1CCCCC1)N1CCC(c2cnc[nH]2)CC1 [thioperamide],0,0,0,0,108,97.3,104,100,92.7,98.7,99.4,92.7,103,95.4,100,96.2,98.7,93.1,96.4,103,103,96.5,94.3,95.9,> 10,> 10,> 10,> 10,,,,,,,
